Experimental findings from patent US3991053A are described below.

One experiment concerns Streptococcus pyogenes. The experiment in a line: In vitro MIC, two-fold serial dilution in Brain-Heart Infusion Broth, Streptococcus pyogenes. Particulars: read-out: MIC (minimum inhibitory concentration) Strep. pyogenes.
Experiment [1] relates to Salmonella choleraesuis. The experiment can be described thus: In vitro MIC, two-fold serial dilution in Brain-Heart Infusion Broth, Salmonella choleraesuis. As to conditions: Salmonella enterica, read-out: MIC (minimum inhibitory concentration) Sal. choleraesuis.
In experiment [2] the test system is Pasteurella multocida. The experiment in a line: In vitro MIC, two-fold serial dilution in Brain-Heart Infusion Broth, Pasteurella multocida. Particulars: read-out: MIC (minimum inhibitory concentration) Past. multocida.
The test system of experiment [3] is Salmonella choleraesuis. The experiment can be described thus: In vivo protection of mice infected intraperitoneally with Salmonella choleraesuis. Particulars: multiple dosing, 25 mg./kg., percentage of animals which survive; for Percentage protection Sal. choleraesuis SC: subcutaneous (SC). As to the method: (§1) In determining the in vivo activity of the compounds of the invention, the test compound is administered to mice which have been infected by intraperitoneal injection of a lethal inoculum of pathogenic bacteria. The test compound is administered using a multiple dosing regimen, using either the oral (PO) or the subcutaneous (SC) route. The inoculum of bacteria varies from one to about ten times the amount needed to kill 100% of the mice, under the conditions of the test. At the end of the test, the activity of a compound is assessed by counting the number of survivors among the treated animals, and expressing the activity of a compound as the percentage of animals which survive. In Table I, in vivo activities of several of the compounds of this invention against Salmonella choleraesuis and Pasteurella multocida are presented. | *The dosage of test compound in the protection studies using Salmonnella | choleraesuis was 25 mg./kg. of body weight, and using Pasteurella | multocida it was 50 mg./kg. of body weight.

The test system of the next experiment is Escherichia coli. The experiment in a line: In vitro MIC, two-fold serial dilution in Brain-Heart Infusion Broth, Escherichia coli. Particulars: read-out: MIC (minimum inhibitory concentration) Esch. coli.
Experiment [4] concerns Pasteurella multocida. The experiment in a line: In vivo protection of mice infected intraperitoneally with Pasteurella multocida. As to conditions: multiple dosing, 50 mg./kg., percentage of animals which survive; for Percentage protection Past. multocida SC: subcutaneous (SC). The protocol: as §1
A further experiment has as its system Treponema hyodysenteriae. The experiment in a line: In vitro MIC, two-fold serial dilution in Brain-Heart Infusion Broth, Treponema hyodysenteriae. Particulars: Brachyspira hyodysenteriae, read-out: MIC (minimum inhibitory concentration) Trep. hyodysenteriae.

Values after ≈ are worked out from the molar mass of the structure shown.

Turning to `CC1(OCc2ccccc2)OCc2c1[n+]([O-])c1ccccc1[n+]2[O-]` (centres unmarked) [1-Benzyloxy-1-methyl-1,3-dihydrofuro[3,4-b]quinoxaline 4,9-Dioxide], the MIC in the experiment on Streptococcus pyogenes was determined as 6.25 µg/mL (≈ 19.3 µM); with Salmonella choleraesuis [1], 12.5 µg/mL (≈ 38.5 µM); with Pasteurella multocida [2], 3.12 µg/mL (≈ 9.62 µM); with Escherichia coli it was 12.5 µg/mL (≈ 38.5 µM). In addition, the “Percentage protection Sal. choleraesuis PO” value with Salmonella choleraesuis [3] came out at 40%. For the same compound, in the experiment with Salmonella choleraesuis [3], the “Percentage protection Sal. choleraesuis SC” value was 60%.

On to `CCOC1(C)OCc2c1[n+]([O-])c1ccccc1[n+]2[O-]` (centres unmarked) [1-Ethoxy-1-methyl-1,3-dihydrofuro[3,4-b]quinoxaline 4,9-Dioxide], for which the MIC is 3.12 µg/mL (≈ 11.9 µM) with Streptococcus pyogenes, 12.5 µg/mL (≈ 47.7 µM) with Salmonella choleraesuis [1], 12.5 µg/mL (≈ 47.7 µM) in the experiment on Pasteurella multocida [2] and 12.5 µg/mL (≈ 47.7 µM) in the experiment on Escherichia coli. Besides, in the experiment with Salmonella choleraesuis [3], the “Percentage protection Sal. choleraesuis PO” value turned out to be 70%. For the same compound, the “Percentage protection Sal. choleraesuis SC” value in the experiment on Salmonella choleraesuis [3] came out at 50%.

As for `CC1(O)OCc2c1[n+]([O-])c1ccccc1[n+]2[O-]` (centres unmarked) [1-Hydroxy-1-methyl-1,3-dihydrofuro[3,4-b]quinoxaline 4,9-dioxide], the MIC in the experiment with Streptococcus pyogenes turned out to be 0.78 µg/mL (≈ 3.33 µM); with Salmonella choleraesuis [1], 1.56 µg/mL (≈ 6.66 µM); with Pasteurella multocida [2], 12.5 µg/mL (≈ 53.4 µM); in the experiment on Treponema hyodysenteriae, 0.09 µg/mL (≈ 0.384 µM); with Escherichia coli, 1.56 µg/mL (≈ 6.66 µM). Further, the “Percentage protection Past. multocida PO” value with Pasteurella multocida [4] turned out to be 100%. The “Percentage protection Past. multocida SC” value with Pasteurella multocida [4] worked out at 100%. The “Percentage protection Sal. choleraesuis PO” value in the experiment with Salmonella choleraesuis [3] stood at 100%. Also, in the experiment on Salmonella choleraesuis [3], the “Percentage protection Sal. choleraesuis SC” value worked out at 100%.

Regarding `COC1(C)OCc2c1[n+]([O-])c1ccccc1[n+]2[O-]` (centres unmarked) [1-Methoxy-1-methyl-1,3-dihydrofuro[3,4-b]quinoxaline 4,9-Dioxide], the MIC stood at 0.78 µg/mL (≈ 3.14 µM) in the experiment on Streptococcus pyogenes, 1.56 µg/mL (≈ 6.28 µM) with Salmonella choleraesuis [1], 3.12 µg/mL (≈ 12.6 µM) with Pasteurella multocida [2] and 3.12 µg/mL (≈ 12.6 µM) in the experiment with Escherichia coli. In addition, the “Percentage protection Past. multocida PO” value in the experiment with Pasteurella multocida [4] was found to be 90%. For the same compound, the “Percentage protection Past. multocida SC” value in the experiment on Pasteurella multocida [4] turned out to be 100%. The “Percentage protection Sal. choleraesuis PO” value in the experiment with Salmonella choleraesuis [3] is 100%. Besides, in the experiment on Salmonella choleraesuis [3], the “Percentage protection Sal. choleraesuis SC” value turned out to be 100%.
